Where a SMILES comes first, the peptide text is derived from it. [ ]: non-standard residue; d: D form. Nle = CCCC[C@H](N)C(=O)O
Tests used:
[1] = target: T1, PTHR1 (Homo sapiens, UniProt Q03431); assay: Antagonism of PTH(1-34)-induced cAMP response (GloSensor) in GP-2.3 cells; type: cell-based
T1 construct: expressed in transfected cells; host or cells: GP-2.3 (HEK-293 stably transfected with hPTHR1 and GloSensor)
T1 sequence (Q03431 27-593): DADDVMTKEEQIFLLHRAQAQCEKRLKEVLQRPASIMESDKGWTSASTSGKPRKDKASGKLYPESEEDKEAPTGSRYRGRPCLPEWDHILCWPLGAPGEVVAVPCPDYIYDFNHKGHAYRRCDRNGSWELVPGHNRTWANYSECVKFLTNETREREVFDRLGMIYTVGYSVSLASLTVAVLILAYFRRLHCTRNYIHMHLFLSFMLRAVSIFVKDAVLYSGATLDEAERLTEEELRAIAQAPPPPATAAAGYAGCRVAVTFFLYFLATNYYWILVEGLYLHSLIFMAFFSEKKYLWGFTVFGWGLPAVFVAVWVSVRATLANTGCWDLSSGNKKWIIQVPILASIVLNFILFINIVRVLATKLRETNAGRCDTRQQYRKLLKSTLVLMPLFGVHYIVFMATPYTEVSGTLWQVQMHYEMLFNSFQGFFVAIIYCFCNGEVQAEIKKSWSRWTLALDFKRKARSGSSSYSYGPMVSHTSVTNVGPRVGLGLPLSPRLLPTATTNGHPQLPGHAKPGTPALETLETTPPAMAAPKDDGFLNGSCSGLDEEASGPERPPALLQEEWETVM
Procedure: cAMP signaling was assessed in the HEK293-derived or SaOS2-derived cell lines stably expressing the luciferase-based GloSensor™ cAMP reporter (Hattersley et al., Paper presented at: Novel Signaling Mechanisms and Bone Cell Biology 2014; Binkowski et al., Methods in molecular biology. 756:263-271). HEK-293 cells were further transfected to stably express the hPTHR1, hPTHR1-H223R, or hPTHR1-T410P. The cells were seeded into 96-well white plates and were assayed 24 to 48 hours post-confluency. Assays were performed at room temperature in CO2-independent culture media (Life Technologies, Corp., Carlsbad, Calif.) containing 0.1% BSA (CIDB). The cells were pre-loaded with luciferin (0.5 mM in CIDB) for 15 minutes, then PTH peptides were added at varying concentrations. cAMP-dependent luminescence was measured at two-minute intervals using a PerkinElmer Envision plate reader. The time at which maximum luminescence (cps) observed with agonist alone, typically at 10-20 minutes after agonist addition, was used to obtain data from wells containing antagonist with or without agonist, to thus generate antagonist ligand dose-response curves. The resulting cps values were then plotted against ligand concentration using GraphPad Prism 7.0 software and a four-parameter logistics curve fitting equation, which yielded parameters of inhibitory potency (pIC50).
Pharmacological properties of the ligands were assessed in cells expressing the PTHR1 and the GloSensor™ cAMP reporter. The assays used GP-2.3 cells, derived from HEK293 cells by stable transfection with the hPTHR1 and GloSensor™, as well as SGS-72 cells, which are derived from the human osteosarcoma cell line, Saos-2, in which is endogenously expressed the hPTHR1, by stable transfection with GloSensor™. Binding of representative polypeptides to the PTHR1 was assessed in GP-2.3 cells by radioligand competition methods (FIGS. 1A and 1B, Table 3).
[…] concentration of antagonist that inhibited the maximum response to PTH(1-34)-induced in the absence of antagonist (at ˜40 minutes) is reported in units of -log M (pIC50), and the corresponding nanomolar value is shown below each pIC50 value. Data are means of the number of experiments indicated (n). The PTH(1-34)-induced maximum luminescence was ˜80,000 cps and the basal was ˜1,000 cps. TMR indicates Lys13 modified at epsilon amino function with TMR, P vs. inhibition by dW12,Y34-bPTH(7-34).

[2] = target: T2, endogenous hPTHR1 (Homo sapiens, UniProt Q03431); assay: Antagonism of PTH(1-34)- and PTHrP(1-36)-induced cAMP response (GloSensor) in SGS-72 cells; type: cell-based; settings: PTH(1-34) 0.3 nM
T2 construct: Saos-2, in which is endogenously expressed the hPTHR1; endogenous in cells
T2 sequence (Q03431 27-593): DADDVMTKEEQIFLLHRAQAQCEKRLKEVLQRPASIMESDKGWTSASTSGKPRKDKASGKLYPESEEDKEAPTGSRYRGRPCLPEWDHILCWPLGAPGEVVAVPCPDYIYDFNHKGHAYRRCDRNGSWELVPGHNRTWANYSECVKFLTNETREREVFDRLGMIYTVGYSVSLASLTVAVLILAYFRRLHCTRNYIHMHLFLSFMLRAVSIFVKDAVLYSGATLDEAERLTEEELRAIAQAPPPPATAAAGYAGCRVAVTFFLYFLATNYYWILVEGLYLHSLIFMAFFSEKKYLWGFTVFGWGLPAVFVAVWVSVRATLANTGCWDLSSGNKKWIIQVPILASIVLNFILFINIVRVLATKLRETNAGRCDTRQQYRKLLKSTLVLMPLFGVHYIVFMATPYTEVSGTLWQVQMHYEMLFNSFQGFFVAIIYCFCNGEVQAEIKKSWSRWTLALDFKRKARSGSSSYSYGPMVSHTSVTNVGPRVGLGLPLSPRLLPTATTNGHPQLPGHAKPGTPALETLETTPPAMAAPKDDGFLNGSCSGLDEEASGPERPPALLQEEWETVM
Procedure: cAMP signaling was assessed in the HEK293-derived or SaOS2-derived cell lines stably expressing the luciferase-based GloSensorTM cAMP reporter ([…] al., Paper presented at: Novel Signaling Mechanisms and Bone Cell Biology 2014; Binkowski et al., Methods in molecular biology. 756:263-271). HEK-293 cells were further transfected to stably express the hPTHR1, hPTHR1-H223R, or hPTHR1-T410P. The cells were seeded into 96-well white plates and were assayed 24 to 48 hours post-confluency. Assays were performed at room temperature in CO2-independent culture media (Life Technologies, Corp., Carlsbad, Calif.) containing 0.1% BSA (CIDB). The cells were pre-loaded with luciferin (0.5 mM in CIDB) for 15 minutes, then PTH peptides were added at varying concentrations. cAMP-dependent luminescence was measured at two-minute intervals using a PerkinElmer Envision plate reader. The time at which maximum luminescence (cps) observed with agonist alone, typically at 10-20 minutes after agonist addition, was used to obtain data from wells containing antagonist with or without agonist, to thus generate antagonist ligand dose-response curves. The resulting cps values were then plotted against ligand concentration using GraphPad Prism 7.0 software and a four-parameter logistics curve fitting equation, which yielded parameters of inhibitory potency (pIC50). Pharmacological properties of the ligands were assessed in cells expressing the PTHR1 and the GloSensorTM cAMP reporter. The assays used GP-2.3 cells, derived from HEK293 cells by stable transfection with the hPTHR1 and GloSensorTM, as well as SGS-72 cells, which are derived from the human osteosarcoma cell line, Saos-2, in which is endogenously expressed the hPTHR1, by stable transfection with GloSensorTM. Binding of representative polypeptides to the PTHR1 was assessed in GP-2.3 cells by radioligand competition methods (FIGS. 1A and 1B, Table 3). […] In Table 5, antagonist assays were performed in SGS-72 cells (SaOS2 cells with stable GloSensorTM cAMP reporter) at room temperature. […] The mean (±sem) concentration of antagonist that inhibited the maximum agonist-induced response observed in the absence of antagonist (at 40 minutes) is reported in units of -log M (pIC50), and the corresponding nanomolar value is shown below each pIC50 value. Data are means of the number of seven experiments. The PTH(1-34)-induced maximum luminescence was 500,000 cps and the basal was 5,000 cps. TMR indicates Lys13 modified at epsilon amino function with TMR. The data are illustrated in FIG. 7A. […] Date are means (±SEM) of the number of separate experiments indicated by n.

PTH(1-34)-induced maximum luminescence ([1]; basal ~1,000 cps) | PTH(1-34)-induced maximum luminescence ([2]; basal ~5,000 cps) | IC50 ([1]; inhibition of PTH(1-34)-induced maximum response, read-out: corresponding nanomolar value of pIC50 (Table 4) (converted)) [nM] | IC50 ([2]; IC50 PTH(1-34) (Table 6, nanomolar value), antagonist pre-treatment 15 minutes) [nM] | Compound
~80,000 cps | ~500,000 cps | – | – | CC[C@H](C)[C@H](NC(=O)[C@H](CCC(=O)O)NC(=O)[C@H](CO)NC(=O)[C@@H](NC(=O)[C@@H](N)CO)C(C)C)C(=O)N[C@@H](CCC(N)=O)C(=O)N[C@@H](CC(C)C)C(=O)N[C@@H](CCSC)C(=O)N[C@@H](Cc1c[nH]cn1)C(=O)N[C@@H](CC(N)=O)C(=O)N[C@@H](CC(C)C)C(=O)NCC(=O)N[C@@H](CCCCN)C(=O)N[C@@H](Cc1c[nH]cn1)C(=O)N[C@@H](CC(C)C)C(=O)N[C@@H](CC(N)=O)C(=O)N[C@@H](CO)C(=O)N[C@@H](CCSC)C(=O)N[C@@H](CCC(=O)O)C(=O)N[C@@H](CCCNC(=N)N)C(=O)N[C@H](C(=O)N[C@@H](CCC(=O)O)C(=O)N[C@@H](Cc1c[nH]c2ccccc12)C(=O)N[C@@H](CC(C)C)C(=O)N[C@@H](CCCNC(=N)N)C(=O)N[C@@H](CCCCN)C(=O)N[C@@H](CCCCN)C(=O)N[C@@H](CC(C)C)C(=O)N[C@@H](CCC(N)=O)C(=O)N[C@@H](CC(=O)O)C(=O)N[C@H](C(=O)N[C@@H](Cc1c[nH]cn1)C(=O)N[C@@H](CC(N)=O)C(=O)N[C@@H](Cc1ccccc1)C(N)=O)C(C)C)C(C)C [compound 1923, PTH(1-34), reference compound]
– | – | 224 | 4.39 | CCCC[C@H](NC(=O)[C@H](CC(C)C)NC(=O)[C@H](CCC(N)=O)NC(=O)[C@@H](N)[C@@H](C)CC)C(=O)N[C@@H](Cc1c[nH]cn1)C(=O)N[C@@H](CCC(N)=O)C(=O)N[C@@H](CCCNC(=N)N)C(=O)N[C@H](Cc1c[nH]c2ccccc12)C(=O)N[C@@H](CCCCN)C(=O)N[C@@H](Cc1c[nH]c2ccccc12)C(=O)N[C@H](C(=O)N[C@@H](CCC(N)=O)C(=O)N[C@@H](CC(=O)O)C(=O)N[C@@H](C)C(=O)N[C@@H](CCCNC(=N)N)C(=O)N[C@@H](CCCNC(=N)N)C(=O)N[C@@H](CCCNC(=N)N)C(=O)N[C@@H](C)C(=O)N[C@@H](Cc1c[nH]c2ccccc12)C(=O)N[C@@H](CC(C)C)C(=O)N[C@@H](Cc1c[nH]cn1)C(=O)N[C@@H](CCCCN)C(=O)N[C@@H](CC(C)C)C(=O)N[C@H](C(=O)N[C@@H](C)C(=O)N[C@@H](CCC(=O)O)C(=O)N[C@H](C(=O)N[C@@H](Cc1c[nH]cn1)C(=O)N[C@H](C(=O)N[C@@H](C)C(=O)N[C@@H](CCC(=O)O)C(=O)N[C@H](C(=O)N[C@@H](CS)C(N)=O)[C@@H](C)CC)[C@@H](C)O)[C@@H](C)CC)[C@@H](C)CC)[C@@H](C)CC [compound 1974, Nle8, dW12, W23, C37-LA-PTH(5-37)] (H-IQL[Nle]HQR[dW]KWIQDARRRAWLHKLIAEIHTAEIC-NH2; N-terminus assumed)
